Values of other authors as cited in US20260293888A1, “METHODS OF TREATING MOLD” (priority 2023, published 2026).

- flash point (TEG alone): 157 °C
- boiling point (at a pressure of 101.325 kPa): 286.5 °C
- miscibility with water (water): miscible with water
Structure (SMILES): OCCOCCOCCO [Triethylene glycol, triethylene glycol]
- vapor pressure (compared to water): relative low vapor pressure compared to water
